Test results as given in US6638943B2 (The University of Tennessee Research Foundation, priority 2001, dated 2003).
Where two headings read alike, the source gives them in different places.

Assays:
[1] = target: T1, human α2a-AR (Homo sapiens, UniProt P08913); assay: [3H]Rauwolscine equilibrium competition binding, human α2a-AR expressed in CHO cells; conditions: for Ki: human α2a-AR in CHO cells; for α2a/α2b Selectivity = Ki(α2b)/Ki(α2a): Table 1, ratio of Ki values
T1 construct: expressed in transfected cells
T1 sequence (P08913 1-465): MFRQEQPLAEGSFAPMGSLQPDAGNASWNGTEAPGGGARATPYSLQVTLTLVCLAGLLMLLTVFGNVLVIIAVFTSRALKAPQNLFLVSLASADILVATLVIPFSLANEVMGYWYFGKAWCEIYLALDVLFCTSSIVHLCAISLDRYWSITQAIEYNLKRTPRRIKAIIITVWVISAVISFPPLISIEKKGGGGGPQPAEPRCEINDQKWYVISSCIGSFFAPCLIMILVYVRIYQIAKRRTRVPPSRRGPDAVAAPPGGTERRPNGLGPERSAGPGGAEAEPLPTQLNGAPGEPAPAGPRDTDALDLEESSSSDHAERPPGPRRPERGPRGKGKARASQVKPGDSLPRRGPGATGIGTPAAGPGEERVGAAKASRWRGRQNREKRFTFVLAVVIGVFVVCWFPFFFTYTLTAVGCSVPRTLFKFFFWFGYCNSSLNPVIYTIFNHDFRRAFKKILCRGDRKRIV

[2] = target: T2, human α2c-AR (Homo sapiens, UniProt P18825); assay: [3H]Rauwolscine equilibrium competition binding, human α2c-AR expressed in CHO cells
T2 construct: expressed in transfected cells
T2 sequence (P18825 1-462): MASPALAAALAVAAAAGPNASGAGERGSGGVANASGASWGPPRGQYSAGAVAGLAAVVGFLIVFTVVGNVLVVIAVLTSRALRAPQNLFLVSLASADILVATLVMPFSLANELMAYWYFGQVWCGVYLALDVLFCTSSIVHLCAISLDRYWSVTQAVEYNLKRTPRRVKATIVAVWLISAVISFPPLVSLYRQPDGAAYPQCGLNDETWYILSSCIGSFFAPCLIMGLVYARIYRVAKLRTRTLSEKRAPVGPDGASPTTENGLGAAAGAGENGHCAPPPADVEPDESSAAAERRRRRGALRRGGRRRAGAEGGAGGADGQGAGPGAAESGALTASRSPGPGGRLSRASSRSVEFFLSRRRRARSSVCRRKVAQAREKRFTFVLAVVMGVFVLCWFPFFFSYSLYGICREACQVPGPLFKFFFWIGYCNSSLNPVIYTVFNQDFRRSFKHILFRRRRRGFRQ

[3] = target: T3, human α2b-AR (Homo sapiens, UniProt P18089); assay: [3H]Rauwolscine equilibrium competition binding, human α2b-AR expressed in CHO cells
T3 construct: expressed in transfected cells
T3 sequence (P18089 1-450): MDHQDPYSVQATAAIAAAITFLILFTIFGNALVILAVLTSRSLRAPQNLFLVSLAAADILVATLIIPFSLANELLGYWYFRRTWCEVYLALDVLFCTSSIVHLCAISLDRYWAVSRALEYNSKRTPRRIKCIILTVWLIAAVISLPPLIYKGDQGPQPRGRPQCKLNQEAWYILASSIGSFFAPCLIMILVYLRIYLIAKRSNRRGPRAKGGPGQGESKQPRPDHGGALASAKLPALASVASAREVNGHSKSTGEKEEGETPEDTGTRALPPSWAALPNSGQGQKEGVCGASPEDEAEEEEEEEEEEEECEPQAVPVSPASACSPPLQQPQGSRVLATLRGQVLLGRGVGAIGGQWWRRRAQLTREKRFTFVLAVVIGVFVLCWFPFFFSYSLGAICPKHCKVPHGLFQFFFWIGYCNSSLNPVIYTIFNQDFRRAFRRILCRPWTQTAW

[4] = tested on: cremaster muscle arterioles (A3-A4 resistance vessels); assay: Intravital microscopy of mouse cremaster muscle arterioles; assay type: in vivo, male C57-BL mice; conditions: 37° C., systemic administration via femoral vein, n=6
Description: Male C57-BL mice age 7-8 weeks and weighing approximately 20 g were used for the study. Prior to surgery animals were anesthetized with an i.m. injection of […] of Ketaset (87 mg ketamine/mL+13 mg xylazine/mL). Body temperature was maintained at ˜37° C. by convective heating. The animal was supinated and a midline incision was made in the ventro-cervical region and the underlying tissues bisected laterally to expose the trachea. A tracheotomy was performed and the animal intubated directly with PE50 tubing to facilitate ventilation, and the wound closed. The left rear limb was incised to expose the femoral neurovascular bundle, and the femoral vein isolated and catheterized with PE10 tubing attached to a syringe of normal saline. […]. […]
All experiments were carried out using an industrial grade microscope (Nikon MM-11) with two light sources, bright field (Opti-Quip 75 W xenon) and fluorescent (Nikon 150 W mercury). […] Experiments are viewed on a video monitor and recorded on digital tapes for off-line processing. The video images are analyzed off-line using the MetaMorph software (Universal Imaging Co.) on a Dell Optiplex GX-1. […]
The prepared animal was placed on the stage of the microscope on either the surgery board with the translumination window or on a stereotaxic frame. […] The blood pressure was monitored with a Kent Scientific XBP-1000 unit.

[5] = Table 2, mean ± SEM of n = 4-6, read-out: pKi α2a-AR (converted)
[6] = [3H]rauwolscine 2.54 nM, mean ± SEM of four to nine experiments, read-out: Ki = SEM (nM) α2a-AR
[7] = Table 2, mean ± SEM of n = 4-6, read-out: pKi α2b-AR (converted)
[8] = [3H]rauwolscine 2.54 nM, mean ± SEM of four to nine experiments, read-out: Ki = SEM (nM) α2b-AR

Row | Structure (SMILES) | Ki [1, 5] [nM] | Ki [1, 6] [nM] | Ki [2] [µM] | Ki [3, 7] [nM] | Ki [3, 8] [nM] | α2a/α2b Selectivity = Ki(α2b)/Ki(α2a) [1] | binding affinity for α2c-AR greater than on the α1-AR subtypes ([2]; from Table 3) | increase in vessel diameter [4] [%]
1 | O=C(NCCNC(=O)[C@@H]1[C@H]2C[C@H]3c4[nH]c5ccccc5c4CCN3C[C@@H]2CC[C@@H]1O)[C@@H]1[C@H]2C[C@H]3c4[nH]c5ccccc5c4CCN3C[C@@H]2CC[C@@H]1O [Compound 3a] | 93.3 | 26.4 ± 7.3 | 0.00355 | 3160 | 1510 ± 262 | – | – | –
2 | O=C(NCCCCNC(=O)[C@@H]1[C@H]2C[C@H]3c4[nH]c5ccccc5c4CCN3C[C@@H]2CC[C@@H]1O)[C@@H]1[C@H]2C[C@H]3c4[nH]c5ccccc5c4CCN3C[C@@H]2CC[C@@H]1O [Compound 3c] | 53.7 | 15.3 ± 6.2 | 0.00832 | 398 | 189 ± 38.1 | – | – | –
3 | O=C(NCCCCCNC(=O)[C@@H]1[C@H]2C[C@H]3c4[nH]c5ccccc5c4CCN3C[C@@H]2CC[C@@H]1O)[C@@H]1[C@H]2C[C@H]3c4[nH]c5ccccc5c4CCN3C[C@@H]2CC[C@@H]1O [Compound 3d] | 6.17 | 1.73 ± 0.26 | 0.0107 | – | – | – | – | –
4 | O=C(NCCCCCCNC(=O)[C@@H]1[C@H]2C[C@H]3c4[nH]c5ccccc5c4CCN3C[C@@H]2CC[C@@H]1O)[C@@H]1[C@H]2C[C@H]3c4[nH]c5ccccc5c4CCN3C[C@@H]2CC[C@@H]1O [Compound 3e] | 4.47 | 1.35 ± 0.27 | 0.00692 | 288 | 166 ± 56.7 | – | – | –
5 | O=C(NCCCCCCCNC(=O)[C@@H]1[C@H]2C[C@H]3c4[nH]c5ccccc5c4CCN3C[C@@H]2CC[C@@H]1O)[C@@H]1[C@H]2C[C@H]3c4[nH]c5ccccc5c4CCN3C[C@@H]2CC[C@@H]1O [Compound 3f] | 3.09 | 0.87 ± 0.18 | 0.00339 | – | – | – | – | –
6 | O=C(NCCCCCCCCNC(=O)[C@@H]1[C@H]2C[C@H]3c4[nH]c5ccccc5c4CCN3C[C@@H]2CC[C@@H]1O)[C@@H]1[C@H]2C[C@H]3c4[nH]c5ccccc5c4CCN3C[C@@H]2CC[C@@H]1O [Compound 3g] | – | 0.76 ± 0.12 | – | – | 46 ± 7.6 | 60.5 | – | –
7 | O=C(NCCCCCCCCCCNC(=O)[C@@H]1[C@H]2C[C@H]3c4[nH]c5ccccc5c4CCN3C[C@@H]2CC[C@@H]1O)[C@@H]1[C@H]2C[C@H]3c4[nH]c5ccccc5c4CCN3C[C@@H]2CC[C@@H]1O [Compound 3i] | – | 0.39 ± 0.08 | – | – | 18.6 ± 1.6 | 47.7 | – | –
8 | COC(=O)[C@@H]1[C@H]2C[C@H]3c4[nH]c5ccccc5c4CCN3C[C@@H]2CC[C@@H]1O [Yohimbine, reference compound] | – | – | – | – | – | – | at least 4400 fold | 22.14±1.08
